One assay deals with P2X7 receptor (hP2X7) (Homo sapiens (Human), UniProt Q99572). In words: Screen Quest Fluo-8 No Wash Calcium Assay (Bz-ATP-induced Ca2+ influx, FLIPR TETRA). It counts as cell-based. The settings on record: HEK-293 cells stably transfected with P2X7 receptor, Fluo-8 calcium, Low Divalent Cation Assay Buffer. The procedure: Extracellular binding of Bz-ATP to P2X7 receptor opens the channel and allows Ca2+ influx into the cells. This Ca2+ entry was measured in HEK-293 cells stably transfected with P2X7 receptor using Screen Quest™ Fluo-8 No Wash Calcium Assay Kit (AAt Bioquest®, cat. 36316). Once inside the cell, the lipophilic blocking groups of Fluo-8 are cleaved by non-specific cell esterases, resulting in a negatively-charged fluorescent dye that stays inside cells. Its fluorescence increases upon binding to calcium. When HEK-293/P2X7 cells are stimulated with Bz-ATP, Ca2+ enters the cells and the fluorescence of Fluo-8 NW increases. The dye has an absorption spectrum compatible with excitation at 488 nm by argon laser sources and its emission wavelength is in the range of 515-575 nm.
HEK-293 cells stably transfected with P2X7 receptor were seeded overnight in growth medium at 10,000 to 20,000 cells/well in 384-well plate. 24 hours later, the medium was removed and the cells were pre-loaded at RT for 1 hour with 20 μL/w of Fluo-8 NW. Then 10 μL/w of test compounds and reference antagonist A438079 at 3×-concentration were injected with the […] and the kinetic response over a period of five minutes was monitored.

For the next assay, the target named is P2X7 receptor (Homo sapiens (Human), UniProt Q99572). Nature of the assay: YO-PRO-1 Uptake Assay (large pore form, Bz-ATP stimulated). It counts as cell-based. As to conditions: HEK-293 cells stably transfected with P2X7 receptor; Bz-ATP EC80 (30 μM); 5 μM YO-PRO-1. The text has this: YO-PRO®-1 is a fluorescent DNA-binding dye with a MW of 374 Da (Molecular Probes®, cat. Y3603). This method is based upon the presumed ability of YO-PRO®-1 to enter through the dilated or “large pore form” of P2X7 receptor and to bind to intracellular DNA whereupon it increases many fold its fluorescence intensity. The dye has an absorption spectrum compatible with excitation at 488 nm by argon laser sources and its emission wavelength is in the range of 515-575 nm. The aim of this assay was to validate the interaction of antagonists with P2X7 receptor using an alternative readout to Ca^2+-sensitive fluorescent dyes.
HEK-293 cells stably transfected with P2X7 receptor were seeded overnight in growth medium at 20,000 cells/well in 384-well plate. 24 hours later, the medium was removed, the cells were washed with Low Divalent Cation Assay Buffer (0.3 mM Ca2+ and 0 mM Mg2+) and then pre-loaded with 20 μL/w of 5 μM YO-PRO®-1 dye. […] fluorescence measurement immediately started. Then, 10 μL/w of test compounds and reference antagonist A438079 at 3×-concentration were injected with the […] and the kinetic response over a period of five minutes was monitored. A second injection of 10 μL/w of 3× Bz-ATP EC80 (30 μM) was performed with the […] and the signal of the emitted fluorescence was recorded for additional 60 minutes. All the experiment was carried out with a Low Divalent Cation Assay Buffer (0.3 mM Ca^2+ and 0 mM Mg^2+).
The effect of the test compounds was measured as percent inhibition vs the reference antagonist and IC50 values were calculated accordingly.

Chain of P2X7 receptor (hP2X7) (Q99572 whole entry): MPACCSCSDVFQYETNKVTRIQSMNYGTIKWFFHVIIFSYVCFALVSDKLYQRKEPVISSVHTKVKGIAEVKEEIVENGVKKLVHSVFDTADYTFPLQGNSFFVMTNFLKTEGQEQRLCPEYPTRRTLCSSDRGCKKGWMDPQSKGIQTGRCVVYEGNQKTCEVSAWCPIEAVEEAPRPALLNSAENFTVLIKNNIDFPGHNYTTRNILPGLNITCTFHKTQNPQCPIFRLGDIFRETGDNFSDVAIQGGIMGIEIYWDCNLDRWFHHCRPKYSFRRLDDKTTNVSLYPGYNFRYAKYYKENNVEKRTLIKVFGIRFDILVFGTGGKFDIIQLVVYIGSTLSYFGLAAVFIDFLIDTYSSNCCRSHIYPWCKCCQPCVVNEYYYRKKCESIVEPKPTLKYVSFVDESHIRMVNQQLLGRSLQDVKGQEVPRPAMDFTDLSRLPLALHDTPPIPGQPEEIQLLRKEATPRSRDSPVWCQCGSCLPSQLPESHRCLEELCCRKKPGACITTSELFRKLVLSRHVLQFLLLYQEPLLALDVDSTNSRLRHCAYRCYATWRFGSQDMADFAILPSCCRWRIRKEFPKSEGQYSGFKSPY
Chain of P2X7 receptor (Q99572 whole entry): as above

For `O=C(NCC(c1cncs1)N1CCC(Oc2ccccc2)CC1)c1c(F)cccc1Cl` (stereo not shown) [Compound 27, 2-chloro-6-fluoro-N-[2-(4-phenoxypiperidin-1-yl)-2-(1,3-thiazol-5-yl)ethyl]benzamide], the IC50 was 63 nM on P2X7 receptor (hP2X7) and 52 nM on P2X7 receptor.
Taken in the same sequence, the figures for `Cc1cccc(C)c1C(=O)NCC(c1scnc1C)N1CCc2ccccc2C1` (stereo not shown) [Compound 30, 2,6-dimethyl-N-[2-(4-methyl-1,3-thiazol-5-yl)-2-(1,2,3,4-tetrahydroisoquinolin-2-yl)ethyl]benzamide] were 46 nM and 37 nM.
The like results for `Cc1ncsc1C(CNC(=O)c1c(F)cccc1Cl)N1CCC(F)(F)CC1` (stereo not shown) [Compound 31, 2-chloro-N-[2-(4,4-difluoropiperidin-1-yl)-2-(4-methyl-1,3-thiazol-5-yl)ethyl]-6-fluorobenzamide] were, in that order, 31 nM and 229 nM.
The like results for `Cc1cccc(C)c1C(=O)NCC(c1scnc1C)N1CCC(F)(F)CC1` (stereo not shown) [Compound 32, N-[2-(4,4-difluoropiperidin-1-yl)-2-(4-methyl-1,3-thiazol-5-yl)ethyl]-2,6-dimethylbenzamide] were, in that order, 55 nM and 44 nM.
Consider `Cc1ncsc1C(CNC(=O)c1cccc2ncccc12)N1CCC(F)(F)CC1` (stereo not shown) [Compound 33, N-[2-(4,4-difluoropiperidin-1-yl)-2-(4-methyl-1,3-thiazol-5-yl)ethyl]quinoline-5-carboxamide], for which the results for the IC50 at P2X7 receptor (hP2X7) and at P2X7 receptor were 158 nM and 176 nM, respectively.
Consider `Cc1cccc(C)c1C(=O)NCC(c1scnc1C)N1CCOCC1` (stereo not shown) [Compound 36, 2,6-dimethyl-N-[2-(4-methyl-1,3-thiazol-5-yl)-2-(morpholin-4-yl)ethyl]benzamide], for which the IC50 at P2X7 receptor (hP2X7) was 149 nM; against P2X7 receptor it was 302 nM.
In the case of `Cc1ncsc1C(CNC(=O)c1cc(-c2ncc(F)cn2)ccc1Cl)N1CCOCC1` (stereo not shown) [Compound 37, 2-chloro-5-(5-fluoropyrimidin-2-yl)-N-[2-(4-methyl-1,3-thiazol-5-yl)-2-(morpholin-4-yl)ethyl]benzamide], the IC50 at P2X7 receptor (hP2X7) was found to be 106 nM; against P2X7 receptor it was 90 nM.
Regarding `Cc1ncc(C(CNC(=O)c2c(F)cccc2Cl)N2CCC(F)(F)CC2)s1` (stereo not shown) [Compound 38, 2-chloro-N-[2-(4,4-difluoropiperidin-1-yl)-2-(2-methyl-1,3-thiazol-5-yl)ethyl]-6-fluorobenzamide], the concentration for half-maximal inhibition (IC50) on P2X7 receptor (hP2X7) was determined as 87 nM; against P2X7 receptor it was 49 nM.
The like results for `Cc1ncc(C(CNC(=O)c2c(C)cccc2C)N2CCC(F)(F)CC2)s1` (stereo not shown) [Compound 40, N-[2-(4,4-difluoropiperidin-1-yl)-2-(2-methyl-1,3-thiazol-5-yl)ethyl]-2,6-dimethylbenzamide] were, in that order, 30 nM and 18 nM.
The like results for `Cc1ncc(C(CNC(=O)c2c(C)cccc2Cl)N2CCc3ccccc3C2)s1` (stereo not shown) [Compound 41, 2-chloro-6-methyl-N-[2-(2-methyl-1,3-thiazol-5-yl)-2-(1,2,3,4-tetrahydroisoquinolin-2-yl)ethyl]benzamide] were, in that order, 853 nM and 996 nM.
The like results for `O=C(NCC(c1cnco1)N1CCOCC1)c1c(F)cccc1Cl` (stereo not shown) [Compound 44, 2-chloro-6-fluoro-N-[2-(morpholin-4-yl)-2-(1,3-oxazol-5-yl)ethyl]benzamide] were, in that order, 677 nM and 500 nM.
Turning to `Cc1cccc(C)c1C(=O)NCC(c1cnco1)N1CCC(F)(F)CC1` (stereo not shown) [Compound 46, N-[2-(4,4-difluoropiperidin-1-yl)-2-(1,3-oxazol-5-yl)ethyl]-2,6-dimethylbenzamide], the figures for the IC50 on P2X7 receptor (hP2X7) and at P2X7 receptor were 18 nM and 55 nM, respectively.
`O=C(NCC(c1cnco1)N1CCc2ccccc2C1)c1c(F)cccc1Cl` (stereo not shown) [Compound 48, 2-chloro-6-fluoro-N-[2-(1,3-oxazol-5-yl)-2-(1,2,3,4-tetrahydroisoquinolin-2-yl)ethyl]benzamide]: the IC50 on P2X7 receptor (hP2X7) is 541 nM; against P2X7 receptor it was 1070 nM.
On to `Cc1cccc(C)c1C(=O)NCC(c1cnco1)N1CCc2ccccc2C1` (stereo not shown) [Compound 49, 2,6-dimethyl-N-[2-(1,3-oxazol-5-yl)-2-(1,2,3,4-tetrahydroisoquinolin-2-yl)ethyl]benzamide], for which the concentration for half-maximal inhibition (IC50) on P2X7 receptor (hP2X7) was 104 nM; against P2X7 receptor it was 945 nM.
The like results for `COc1cccc(C(=O)NCC(c2ocnc2C)N2CCC(F)(F)CC2)c1OC` (stereo not shown) [Compound 50, N-[2-(4,4-difluoropiperidin-1-yl)-2-(4-methyl-1,3-oxazol-5-yl)ethyl]-2,3-dimethoxybenzamide] were, in that order, 4970 nM and 2090 nM.
For `Cc1ncoc1C(CNC(=O)c1cc(-c2ncc(F)cn2)ccc1Cl)N1CCC(F)(F)CC1` (stereo not shown) [Compound 51, 2-chloro-N-[2-(4,4-difluoropiperidin-1-yl)-2-(4-methyl-1,3-oxazol-5-yl)ethyl]-5-(5-fluoropyrimidin-2-yl)benzamide], the IC50 on P2X7 receptor (hP2X7) came out at 101 nM; on P2X7 receptor it was 71 nM.
As for `Cc1ncoc1C(CNC(=O)c1cc(-c2ncc(F)cn2)ccc1Cl)N1CCOCC1` (stereo not shown) [Compound 54, 2-chloro-5-(5-fluoropyrimidin-2-yl)-N-[2-(4-methyl-1,3-oxazol-5-yl)-2-(morpholin-4-yl)ethyl]benzamide], the IC50 on P2X7 receptor (hP2X7) amounted to 114 nM; on P2X7 receptor it was 279 nM.
Taken in the same sequence, the figures for `COc1cccc(C(=O)NCC(c2ocnc2C)N2CCc3ccccc3C2)c1OC` (stereo not shown) [Compound 56, 2,3-dimethoxy-N-[2-(4-methyl-1,3-oxazol-5-yl)-2-(1,2,3,4-tetrahydroisoquinolin-2-yl)ethyl]benzamide] were 147 nM and 414 nM.
The like results for `Cc1nc(C)c(C(CNC(=O)c2cc(-c3ncc(F)cn3)ccc2Cl)N2CCC(F)(F)CC2)o1` (stereo not shown) [Compound 58, 2-chloro-N-[2-(4,4-difluoropiperidin-1-yl)-2-(2,4-dimethyl-1,3-oxazol-5-yl)ethyl]-5-(5-fluoropyrimidin-2-yl)benzamide] were, in that order, 1120 nM and 2970 nM.
The like results for `Cc1ncc(C(CNC(=O)c2c(F)cccc2Cl)N2CCC(OCc3ccccc3)CC2)s1` (stereo not shown) [Compound 62, N-{2-[4-(benzyloxy)piperidin-1-yl]-2-(2-methyl-1,3-thiazol-5-yl)ethyl}-2-chloro-6-fluorobenzamide] were, in that order, 576 nM and 1110 nM.
`O=C(NCC(c1cnco1)N1CCC(OCc2ccccc2)CC1)c1c(F)cccc1Cl` (stereo not shown) [Compound 63, N-{2-[4-(benzyloxy)piperidin-1-yl]-2-(1,3-oxazol-5-yl)ethyl}-2-chloro-6-fluorobenzamide]: the 50% inhibitory concentration (IC50) at P2X7 receptor (hP2X7) was 69 nM; against P2X7 receptor, 158 nM.
The like results for `O=C(NCC(c1cnc(C(F)(F)F)s1)N1CCC(F)(F)CC1)c1c(F)cccc1Cl` (stereo not shown) [Compound 81, 2-chloro-N-[2-(4,4-difluoropiperidin-1-yl)-2-[2-(trifluoromethyl)-1,3-thiazol-5-yl]ethyl]-6-fluorobenzamide] were, in that order, 38 nM and 16 nM.
Take `CCc1ncc(C(CNC(=O)c2c(F)cccc2Cl)N2CCC(F)(F)CC2)s1` (stereo not shown) [Compound 85, 2-chloro-N-[2-(4,4-difluoropiperidin-1-yl)-2-(2-ethyl-1,3-thiazol-5-yl)ethyl]-6-fluorobenzamide]: the IC50 worked out at 62 nM at P2X7 receptor (hP2X7) and 48 nM at P2X7 receptor.
For the compound `O=C(NCC(c1cnc(C2CC2)s1)N1CCC(F)(F)CC1)c1cc(-c2ncc(F)cn2)ccc1Cl` (stereo not shown) [Compound 87], the IC50 was 179 nM on P2X7 receptor (hP2X7) and 126 nM at P2X7 receptor.
The like results for `Cc1ncsc1C(CNC(=O)c1c(F)cccc1Cl)N1CCOC(c2ccc(F)cc2F)C1` (stereo not shown) [Compound 91, 2-chloro-N-{2-[2-(2,4-difluorophenyl)morpholin-4-yl]-2-(4-methyl-1,3-thiazol-5-yl)ethyl}-6-fluorobenzamide] were, in that order, 72 nM and 53 nM.
The like results for `Cc1ncsc1C(CNC(=O)c1cc(-c2ncc(F)cn2)ccc1Cl)N1CCOC2(CCC2)C1` (stereo not shown) [Compound 93, 2-chloro-5-(5-fluoropyrimidin-2-yl)-N-[2-(4-methyl-1,3-thiazol-5-yl)-2-{5-oxa-8-azaspiro[3.5]nonan-8-yl}ethyl]benzamide] were, in that order, 116 nM and 82 nM.

As usually defined, the IC50 is the midpoint of a concentration-inhibition curve.

Values taken from patent US9718812B2, “Substituted thiazole or oxazole P2X7 receptor antagonists” (Axxam S.P.A., priority 2014, dated 2017).
